From patent US9963474B2, “Mitochondria-targeted dicarbonyl sequestering compounds” (MEDICAL RESEARCH COUNCIL, priority 2013, dated 2018)

Key:
[1] = Reaction rate with glyoxal (fluorometric kinetics); conditions: 37° C., means±SE, n=3
Description: (A) The reactions between MitoG (100 μM) and 1,2-dicarbonyls (25 μM) at 37° C. were followed from the formation of the quinoxaline products at 345 nm. (B) Fluorimetric detection of the reaction between MitoG and methylglyoxal (40 μM each), and between MitoG and glyoxal (200 μM each) was observed by monitoring the quinoxaline products at excitation and emission wavelengths of 344 and 433 nm, respectively. The changes in fluorescence caused by MQE and QE formation was quantified from calibration curves constructed by plotting fluorescence (excitation and emission wavelengths of 344 and 433 nm, respectively) against known amounts of either quinoxaline and were linear up to at least 20 μM.
TPP-conjugated compounds were made up as 10 mM stock solutions in DMSO, flushed with argon and stored as aliquots at −20° C. […] The molar extinction coefficients were calculated from the absorbance at maximal absorption (λmax) for the compounds for solutions of known concentration. Reaction rates between MitoG and 1,2-dicarbonyls were determined from the initial linear slope over the first 30 s at the λmax for the formation of the relevant quinoxaline. Fluorescence spectra were obtained in 2.5 ml KCl buffer using a Shimadzu RF-301PC fluorimeter with slit widths of 3 nm. […]

BAECs = assay: Cellular oxygen consumption rate, Seahorse XF24; type: cell-based, bovine
Description: (A, B) RLM respiring on glutamate/malate at 37° C. were incubated with various concentrations of MitoG for 7 min in an oxygen electrode to measure coupled respiration (A) before ADP was added to measure phosphorylating respiration (B). Data are the percentage of the respiration rates of untreated controls (dashed lines). (C and D) C2C12 cells (C) or BAECs [Bovine Aortic Endothelial Cells; Cell Applications Inc, San Diego, Calif.] (D) were incubated with MitoG for 24 h and cell survival was then determined using the MTS assay. Data are expressed as a percentage of the untreated controls (dashed line). (E-H) BAECs were incubated with MitoG for 2 h at 37° C. and the cellular oxygen consumption rate (OCR) after the sequential additions of oligomycin, FCCP and antimycin A/rotenone were then measured using a Seahorse XF24 analyser. (E) OCR due to ATP synthesis, (F) OCR due to proton leak, (G) reserve capacity and (H) non-mitochondrial oxygen consumption. Results are means±S.E. of three independent experiments. *, P<0.05 or **, P<0.01 relative to untreated controls.
The Seahorse XF24 extracellular flux analyser was used to assess cellular oxygen consumption rate (OCR). […] OCR was determined as follows: cells were washed twice in assay medium [4.15 g/l DMEM base, 1.85 g/l NaCl, ix glutamax (Invitrogen), 1 mM sodium pyruvate, 5 mM D-glucose, 15 mg/l phenol red, 20 mM HEPES and 0.4% (v/v) FCS, pH 7.4] and incubated in 630 μl assay medium for 1 h at 37° C. in air. After 20 min equilibration basal OCR was determined and after 3 h incubation with MitoG sequential injections of oligomycin (1 μg/ml), FCCP (2 μM) and rotenone/antimycin A (4 μg/ml and 5 μM, respectively). OCRs were normalized to cell number as measured using the sulphorhodamine B (SRB) assay as follows: cells were fixed (200 μl 5% trichloroacetic acid at 4° C. for 1 h), washes with water (×3), stained for 20 min with 50 μl 0.4% (w/v) SRB in 1% (v/v) acetic acid, washed (3×1% acetic acid) and the incorporated SRB dye solubilised in 100 μl 10 mM Tris base for 5 min. […]

[2] = Reaction with reactive aldehydes followed by RP-HPLC; conditions: RP-HPLC analysis, data not shown
From the text: MitoG reacted with methylglyoxal and glyoxal to form products with identical absorption, fluorescence and RP-HPLC properties (FIGS. 3E, F, G & H) to those of independently synthesized and characterized MQE or QE (FIGS. 3B, C & D). […] Thus the reaction of MitoG with these aldehydes is not diagnostically useful, in contrast to that with 1,2-dicarbonyls, which generates stable, dominant products.

In the case of `Nc1ccc(OCCCCCC[P+](c2ccccc2)(c2ccccc2)c2ccccc2)cc1N` [MitoG, (6-(3,4-Diaminophenoxy)hexyl)triphenylphosphonium chloride], the “rate constant for reaction with glyoxal” value [1] is reported as 0.6 ± 0.3 M⁻¹ s⁻¹, the “OCR due to proton leak” value (BAECs; 2-5 μM) is reported as “trend to an increased OCR due to proton leak” and the respiratory reserve capacity (BAECs; 2-5 μM) is reported as “decreased respiratory reserve capacity”. For the same molecule, the “OCR due to ATP synthesis” value (BAECs; concentrations above 10 μM) was “slightly decreased” and the “reaction with HNE or acrolein” value [2] was “did react, a number of products were formed some of which were unstable”.
